Experimental data from patent US20230000842A1, “METHODS OF TREATING CARTILAGE DISORDERS THROUGH INHIBITION OF CLK AND DYRK” (SAMUMED, LLC, priority 2019, published 2023).
pEC50: −log10 of the molar value.

Key:
[1] = molecular target: CLK3 kinase (Homo sapiens, UniProt P49761); assay: CLK3 kinase activity assay (Z-lyte FRET); format: biochemical; settings: Z-lyte Ser/Thr 18 peptide, 156 μM ATP, 1 h at room temperature;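 note: kinase activity read as coumarin/fluorescein emission ratio by FRET, unphosphorylated peptide as 0% and phosphorylated peptide as 100% control, values from non-linear regression of dose-response curves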
Experimental: This is a non-radioactive assay using fluorescence resonance energy transfer (FRET) between coumarin and fluorescein to detect kinase activity which is represented as a ratio of coumarin emission/fluorescein emission.
The mixture was allowed to incubate with the representative compounds for one hour at room temperature. All reactions were performed in duplicate. Unphosphorylated (“0% Control”) and phosphorylated (“100% control”) forms of Ser/Thr 18 served as control reactions. Additionally, an 11-point dose-response curve of Staurosporine (1 μM top) was run to serve as a positive compound control.
After incubation, Development Reagent A was diluted in Development Buffer then added to the reaction and allowed to further incubate for one hour at room temperature.
Dose-response curves were generated and inhibitory concentration (IC50) values were calculated using non-linear regression curve fit in the Dotmatics' Studies Software (Bishops Stortford, UK).

[2] = molecular target: CLK2 kinase (Homo sapiens, UniProt P49760); assay: CLK2 kinase activity assay (Z-lyte FRET); format: biochemical; settings: Z-lyte Ser/Thr 6 peptide, 60 μM ATP, 1 h at room temperature;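 note: FRET read-out as coumarin to fluorescein emission ratio, unphosphorylated peptide as 0% and phosphorylated peptide as 100% controls, duplicate reactions, non-linear regression fit of dose-response curves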
[3] = tested on: Wnt pathway activity (SW480 colon carcinoma cells stably expressing the Sp5-Luc reporter); assay: Wnt pathway activity screening assay (Sp5-Luc reporter gene assay); settings: Homo sapiens, SW480, Table 4; SW480 cells stably expressing Sp5-Luc reporter, 10-point dose-response from 10 μM, 36 to 48 hours
Experimental: The screening assay for Wnt pathway activity is described as follows.
SW480 colon carcinoma cells were transduced with a lentiviral vector expressing luciferase with a human Sp5 promoter consisting of a sequence of eight TCF/LEF binding sites. […] These stably transduced SW480 cells were expanded in cell culture and used for all further screening activities. Each compound was dissolved in DMSO as a 10 mM stock and used to prepare compound source plates. Serial dilution (1:3, 10-point dose-response curves starting from 10 μM) and compound transfer was performed using the ECHO 550 (Labcyte, Sunnyvale, Calif.) into 384-well white solid bottom assay plates (Greiner Bio-One) with appropriate DMSO backfill for a final DMSO concentration of 0.1%. […] Following incubation, 15 μl of BriteLite Plus luminescence reagent (Perkin Elmer) was added to each well of the 384-well assay plates. The plates were placed on an orbital shaker for 2 min and then luminescence was quantified using the Envision (Perkin Elmer) plate reader.

[4] = tested on: primary human mesenchymal stem cells (hMSCs); assay: Chondrogenesis screening using primary human mesenchymal stem cells; format: cell-based; settings: Homo sapiens, Mesenchymal stem cells, hMSC chondrogenesis; for EC50: concentration required to induce 50% levels of chondrogenesis with TGF-β3 as positive control, read-out: Conc (nM) of 50% TGF-β3 activity; for Emax: maximum activity relative to TGF-β3 (10 ng/mL) positive control, read-out: Max. Activity as % TGF-β3 activity
Excerpt: Representative compounds were screened using primary human mesenchymal stem cells (hMSCs) to determine their ability to induce chondrogenesis (process by which cartilage is developed).
Human Mesenchymal Stem Cell Culture: Primary human mesenchymal stem cells (hMSCs) were purchased from Lonza (Walkersville, Md.) and expanded in Mesenchymal Stem Cell Growth Media (Lonza). Cells between passage 3 and 6 were used for the experiments.
Area of nodules in each well was normalized to the average of 3 DMSO treated wells on the same plate using Excel (Microsoft Inc.). The normalized averages (fold change over DMSO) of 2 or 3 replicate wells for each compound concentration were calculated. Due to solubility limitations of some of the compounds, curve fitting was incomplete leading to inaccurate EC50 determinations.
Using TGF-β3 as a positive control, the concentration of representative compounds required to induce 50% levels of chondrogenesis is reported. In addition, the maximum activity of each compound and the respective dose that each compound reached maximum chondrogenesis activity is reported.

CLK3 kinase, sequence (P49761 whole entry): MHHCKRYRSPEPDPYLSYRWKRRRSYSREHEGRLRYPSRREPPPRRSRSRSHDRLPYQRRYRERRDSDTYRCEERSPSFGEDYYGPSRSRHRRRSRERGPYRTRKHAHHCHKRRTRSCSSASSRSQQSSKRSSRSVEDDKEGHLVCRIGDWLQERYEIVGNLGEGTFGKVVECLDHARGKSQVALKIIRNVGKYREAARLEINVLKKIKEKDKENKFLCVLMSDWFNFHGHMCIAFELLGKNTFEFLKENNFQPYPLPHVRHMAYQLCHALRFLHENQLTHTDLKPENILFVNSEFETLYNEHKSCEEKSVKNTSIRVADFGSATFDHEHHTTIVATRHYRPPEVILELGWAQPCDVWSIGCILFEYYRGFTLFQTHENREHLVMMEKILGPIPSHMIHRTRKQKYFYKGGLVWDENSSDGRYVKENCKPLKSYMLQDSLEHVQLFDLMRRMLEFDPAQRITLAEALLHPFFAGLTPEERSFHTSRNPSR
CLK2 kinase, sequence (P49760 whole entry): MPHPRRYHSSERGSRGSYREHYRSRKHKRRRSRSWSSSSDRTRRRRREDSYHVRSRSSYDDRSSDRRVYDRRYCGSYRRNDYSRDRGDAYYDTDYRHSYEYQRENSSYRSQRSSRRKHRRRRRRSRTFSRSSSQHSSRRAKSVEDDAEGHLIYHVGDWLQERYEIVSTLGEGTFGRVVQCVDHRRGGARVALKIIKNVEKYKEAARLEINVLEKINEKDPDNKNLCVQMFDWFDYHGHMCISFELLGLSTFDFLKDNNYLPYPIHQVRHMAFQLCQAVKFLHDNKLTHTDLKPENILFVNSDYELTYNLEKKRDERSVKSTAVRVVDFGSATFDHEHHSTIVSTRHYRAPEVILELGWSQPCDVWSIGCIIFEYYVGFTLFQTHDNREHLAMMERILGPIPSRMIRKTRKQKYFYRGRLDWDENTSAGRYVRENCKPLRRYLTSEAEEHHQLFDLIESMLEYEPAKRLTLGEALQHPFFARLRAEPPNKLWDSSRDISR

SMILES | pEC50 [1] | pEC50 [2] | pEC50 [3] | EC50 [4] [nM] | Emax [4] [%]
COc1cncc(C(=O)Nc2c[nH]nc2C(=O)Nc2ccc(OCCN3CCCC3)nc2)c1 [compound 5] | 5.31 | 7.70 | 7.65 | 10 | 106
COc1cncc(C(=O)Nc2c[nH]nc2C(=O)Nc2ccc(N3CCNCC3)nc2)c1 [compound 7] | 5.63 | 7.85 | 6.17 | – | 90.7
Cc1n[nH]c2ccc(-c3cncc(OC[C@H](N)Cc4ccccc4)n3)cc12 [compound 52] | 6.44 | 8.70 | 6.60 | 30 | 52.1
COc1ccc(NC(=O)c2n[nH]c3ccc(-c4cncc(CN5CCCC5)c4)cc23)cn1 [compound 71] | 6.96 | 8.70 | 7.30 | 30 | 63.1
COc1ccc(NC(=O)c2n[nH]c3ccc(-c4cncc(CN5CCC(F)(F)C5)c4)cc23)cn1 [compound 72] | 7.66 | 8.70 | 8.30 | 100 | 72.2
CN1CCN(c2ccc(NC(=O)c3n[nH]c4ccc(-c5cncc(CN6CCC(F)(F)C6)c5)cc34)cn2)CC1 [compound 73] | 7.96 | 9.00 | 8.40 | 30 | 80.9
Cc1ccc(NC(=O)c2n[nH]c3ccc(-c4cncc(CN5CCCCC5)c4)cc23)cn1 [compound 78] | 7.36 | 9.00 | 7.24 | 30 | 102
Cc1cncc(NC(=O)c2n[nH]c3ccc(-c4cncc(CN5CCCCC5)c4)cc23)c1 [compound 79] | 6.45 | 9.00 | 7.23 | 300 | 68.3
O=C(Nc1ccnc(C(F)(F)F)c1)c1n[nH]c2ccc(-c3cncc(CN4CCCCC4)c3)cc12 [compound 80] | 7.03 | 8.52 | 7.44 | 100 | 69
COc1ccc(NC(=O)c2n[nH]c3ccc(-c4cncc(CN5CCCCC5)c4)cc23)cn1 [compound 81] | 7.49 | 9.00 | 7.82 | 300 | 138
CC(C)Oc1ccc(NC(=O)c2n[nH]c3ccc(-c4cncc(CN5CCCCC5)c4)cc23)cn1 [compound 82] | 6.21 | 7.89 | 7.39 | 10 | 51.9
CC(C)CC(=O)Nc1ccncc1NC(=O)c1n[nH]c2ccc(-c3cncc(CN4CCCCC4)c3)cc12 [compound 85] | 5.74 | 8.15 | 7.60 | – | 45.4
O=C(Nc1cnccc1NC(=O)C1CC1)c1n[nH]c2ccc(-c3cncc(CN4CCCCC4)c3)cc12 [compound 86] | 5.90 | 8.52 | 6.92 | 30 | 53.7
C[C@@H]1CN(c2ccc(NC(=O)c3n[nH]c4ccc(-c5cncc(CN6CCCCC6)c5)cc34)cn2)C[C@H](C)O1 [compound 92] | 7.05 | 9.00 | 8.55 | 2700 | 129
O=C(Nc1ccnnc1)c1n[nH]c2ccc(-c3cncc(CN4CCCCC4)c3)cc12 [compound 94] | 7.96 | 9.00 | 7.40 | – | –
O=C(Nc1cnccn1)c1n[nH]c2ccc(-c3cncc(CN4CCCCC4)c3)cc12 [compound 95] | 7.34 | 9.00 | 6.54 | – | –
O=C(Nc1ccc2c(c1)OCCO2)c1n[nH]c2ccc(-c3cncc(CN4CCCCC4)c3)cc12 [compound 97] | 7.22 | 9.00 | 6.90 | – | –
CC1CCN(Cc2cncc(-c3ccc4[nH]nc(C(=O)Nc5cccnc5)c4c3)c2)CC1 [compound 98] | 7.07 | 9.00 | 8.15 | 30 | 94.4
Cc1ncc(NC(=O)c2n[nH]c3ccc(-c4cnc(C)n4C)cc23)s1 [compound 115] | 7.00 | 9.00 | 6.47 | – | –
O=C(Nc1nc2c(-c3cccc(F)c3)cncc2[nH]1)c1n[nH]c2ccc(-c3cccnc3)cc12 [compound 119] | 7.32 | 8.30 | 8.22 | 100 | 157

SMILES | pEC50 [1] | pEC50 [2] | pEC50 [3] | EC50 [4] [nM] | Emax [4] [%]
CCC(=O)Nc1cncc(-c2ccc3[nH]nc(-c4nc5c(-c6cccc(F)c6)cncc5[nH]4)c3c2)c1 [compound 120] | 7.21 | 7.64 | 8.34 | 30 | 139
CCC(=O)Nc1cncc(-c2ccc3[nH]nc(-c4nc5c(-c6cccc(F)c6)ccnc5[nH]4)c3n2)c1 [compound 121] | 7.52 | 8.52 | < 5.00 | – | 29.3
CCCC(=O)Nc1cncc(-c2cc3c(-c4nc5c(-c6cccc(F)c6)nccc5[nH]4)n[nH]c3cn2)c1 [compound 122] | 5.16 | 7.96 | 7.73 | 10 | 67.8
CC(C)CC(=O)Nc1cncc(-c2ccc3[nH]nc(-c4nc5c(-c6cccc(F)c6)ccnc5[nH]4)c3c2)c1 [compound 124] | 6.66 | 7.43 | 8.85 | – | 61
O=C(Nc1cncc(-c2cnc3[nH]nc(-c4nc5c(-c6cccc(F)c6)cncc5[nH]4)c3c2)c1)C1CC1 [compound 126] | 5.13 | 7.92 | 7.96 | 10 | 148
O=C(Nc1cncc(-c2cnc3[nH]nc(-c4nc5c(-c6cccc(F)c6)cncc5[nH]4)c3c2)c1)N1CCOCC1 [compound 127] | 7.38 | 8.22 | 8.05 | – | 96.8
O=C(CC1CCNCC1)Nc1cncc(-c2cc3c(-c4nc5c(-c6cccc(F)c6)ccnc5[nH]4)n[nH]c3cn2)c1 [compound 128] | 7.55 | 8.70 | 6.46 | – | 54.7
O=C(Cc1ccccc1)Nc1cncc(-c2ccc3[nH]nc(-c4nc5c(-c6cccc(F)c6)cncc5[nH]4)c3c2)c1 [compound 129] | 6.79 | 7.28 | 7.64 | 100 | 124
CC(C)Nc1cncc(-c2cnc3[nH]nc(-c4nc5c(-c6cccc(F)c6)cncc5[nH]4)c3c2)c1 [compound 131] | 6.80 | 7.89 | 8.92 | 30 | 504
CN(C)c1cncc(-c2ccc3[nH]nc(-c4nc5c(-c6cccc(F)c6)cncc5[nH]4)c3n2)c1 [compound 132] | 7.92 | 9.00 | 6.20 | 10 | 154
CN(C)c1cncc(-c2ccc3[nH]nc(-c4nc5c(-c6cccc(F)c6)ccnc5[nH]4)c3n2)c1 [compound 133] | 7.43 | 8.70 | 6.18 | 10 | 83.8
CCNCc1cncc(-c2cnc3[nH]nc(-c4nc5c(-c6cccc(F)c6)cccc5[nH]4)c3c2)c1 [compound 134] | 7.12 | 8.22 | 7.39 | – | 98.7
CN(C)CCOc1cncc(-c2cnc3[nH]nc(-c4nc5c(-c6cccc(F)c6)nccc5[nH]4)c3c2)c1 [compound 151] | 7.26 | 9.00 | 6.60 | – | –
CC(C)CC(=O)Nc1cncc(-c2ccc3[nH]nc(-c4nc5c(N6CCN(C)CC6)cccc5[nH]4)c3c2)c1 [compound 217] | 7.40 | 8.52 | 6.57 | – | –
Nc1cncc(-c2ccc3[nH]nc(-c4cc5c(-c6cccnc6)nccc5[nH]4)c3c2)c1 [compound 347] | 7.74 | 8.70 | 6.83 | – | –
CN1CCC(n2cc(C(=O)Nc3cc4cc(-c5cnn(C)c5)ccc4cn3)cn2)CC1 [compound 561] | 8.22 | 9.00 | 7.85 | – | –
CC(C)Nc1cncc(-c2ccc3cnc(NC(=O)C4CCN(CCF)CC4)cc3c2)n1 [compound 598] | 7.28 | 8.10 | 6.75 | – | –
O=C(Nc1cc2cc(-c3cncc(NC4CCNCC4)n3)ccc2cn1)C1CC(F)(F)C1 [compound 600] | 7.11 | 8.52 | 6.42 | – | –
O=C(Nc1cc2cc(-c3cncc(NCC4(F)CNC4)n3)ncc2cn1)C1CC1 [compound 615] | 7.28 | 8.15 | 6.42 | – | –
CNc1nc(NCc2ncccn2)c2c(-c3ccc4ncccc4c3)c[nH]c2n1 [compound 624] | 7.59 | 8.00 | 7.13 | – | –
